This is an account of results in patent publication US11207365B2, “Combined preparations of urinary acidifiers and crystallization inhibitors and application thereof for the treatment or prevention of phosphatic or calcium phosphate-induced renal lithiasis” (UNIVERSITAT DE LES ILLES BALEARS, priority 2014, dated 2021).

The nature of the assay: Induction time for the crystallization of calcium phosphate in artificial urine. As to conditions: for induction time t: 15 mM phosphate and 3 mM calcium solution in artificial urine (no magnesium); for delay in the induction time: 1 μM phytate versus solution without inhibitor. The method, then:
From a 15 mM phosphate ion and 3 mM calcium ion solution in artificial urine, the induction times for the crystallization of calcium phosphate have been calculated at different pH and phytate concentration. The artificial urine had no magnesium since it is shown that the magnesium ion is a calcium phosphate crystallization inhibitor. […] Thus, while at pH 6.75, the calcium phosphate solution (without inhibitor) takes 1 minute to crystallize, with 1 μM phytate it takes 2 minutes (the delay in the induction time at this pH value is 1 minute, for 1 μM phytate). However, when the pH decreases to 6.60, the calcium phosphate solution (without inhibitor) takes 6 minutes to crystallize, while with 1 μM phytate it takes 33 minutes (the delay in the induction time at this pH value is 27 minutes, for 1 μM phytate). Thus, for the same amount of inhibitor there is a significant increase of the crystallization time when the value of the pH of the solution decreases.

With `O=P(O)(O)O[C@H]1[C@H](OP(=O)(O)O)[C@@H](OP(=O)(O)O)[C@H](OP(=O)(O)O)[C@@H](OP(=O)(O)O)[C@H]1OP(=O)(O)O` [phytate, myo-inositol-hexaphosphate], the “induction time t” value runs as follows: (0.5 μM phytate, pH = 6.60) 12 min; (0.5 μM phytate, pH = 6.65) 4 min; (0.5 μM phytate, pH = 6.75) 1 min; (1.0 μM phytate, pH = 6.60) 33 min; (1.0 μM phytate, pH = 6.65) 6 min; (1.0 μM phytate, pH = 6.75) 2 min. The “delay in the induction time” value reads like this: (pH 6.60) 27 min; (pH 6.75) 1 min.
